Data published in patent publication US8044034B2, “Nanoparticle derivatives of gemcitabine” (Centre National de la Recherche Scientifique (C.N.R.S.), priority 2004, dated 2011).
Like-named read-outs stand apart in the source and are kept apart here.

Key:
[1] = Surface tension at constant surface area (Wilhemy blade tensometer); type: physicochemical; conditions: aqueous solution with 10% ethanol
Description: The surface tension of an aqueous SQgem solution was measured at constant surface area at different concentrations using a Wilhemy blade tensometer and compared with that of a solution of gemcitabine (Gem) and 4-(N)-stearoylgemcitabine (C18gem) (Myhren F et al, Gemcitabine derivatives, US patent no. 2002/0042391).
To prepare the various dilutions of SQgem and C18gem, it was necessary to start from an ethanolic solution; the percentage of ethanol in the final solution was 10% (the presence of ethanol reduces the surface tension of water from 72 mN/m to about 50 mN/m).

[2] = tested on: KB3-1; experiment: Cytotoxic activity, MTT test, 72 hours exposure; type: cell-based, human; conditions: for IC50: KB3-1 cells, 72 hours, MTT test, concentration at which 50% of the cells are alive, read-out: CI50 (μM) after 72 hours KB3-1
Description: (§1) The cytotoxic activity of SQgem was evaluated on two human tumoral cell lines (KB3-1, cancer of the naso-pharynx and MCF-7, breast cancer) by exposure to SQgem for 72 hours, and compared with the activity of gemcitabine.
(§2) The lines were maintained in DMEM medium with 10% foetal calf serum, 2 mM glutamine, 50 mg/l antibiotics, at 37° C., 5% CO2, 95% humidity. The cells were seeded onto a 96 well plate in an amount of 1×10^4/well; after 24 hours, different dilutions of gemcitabine and SQgem particle were added and incubated for 72 hours. Cellular viability was then determined by the MTT test. The results are expressed as CI50, which is the concentration of the molecule at which 50% of the cells are alive.

[3] = tested on: MCF-7; experiment: Cytotoxic activity, MTT test, 72 hours exposure; type: cell-based, human; conditions: concentration at which 50% of the cells are alive, read-out: CI50 (μM) after 72 hours MCF-7
Description: as §1, §2

[4] = tested on: two cell lines; experiment: Cytotoxic activity at different times in the presence and absence of inserts (MTT test); type: cell-based, human; conditions: 100 μM SQgem nanoparticles, inserts 0.02 μm, n=3
Description: The cytotoxic activity of SQgem at different times was also determined by incubating 100 μM SQgem nanoparticles on two cell lines in the presence and absence of inserts (0.02 μm) (MTT test) (n=3).

[5] = Nanoparticle size by quasi-elastic light diffusion (Coulter N4MD nanosizer); type: physicochemical
Description: The size of the colloidal particles obtained in example 1 were monitored by quasi-elastic light diffusion using a nanosizer (Coulter® N4MD, Coulter Electronics, Hialeah, USA).
The colloidal suspensions were diluted in MilliQ® water so that the number of particles per ml was suitable for the measuring device.

[6] = concentration in final suspension 1 mg/ml
[7] = concentration in final suspension 2 mg/ml
[8] = concentration in final suspension 4 mg/ml

With CC(C)=CCCC(C)=CCCC(C)=CCCC=C(C)CCC=C(C)CCC(=O)Nc1ccn([C@@H]2O[C@H](CO)[C@@H](O)C2(F)F)c(=O)n1 [SQgem, 4-(N)-squalenoylgemcitabine] the “concentration at which the surface tension is reduced (nanoparticle formation)” value [1] was 4 µM, the IC50 [2] was 8.8 ± 4.1 µM and the “times more cytotoxic than the gemcitabine molecule” value ([2]; from CI50 on KB3-1 and MCF-7, 72 hours) was “five to seven times more toxic”. The IC50 ([3]; MCF-7 cells) was 4.8 ± 3.9 µM, the “anti-cancer activity with inserts with respect to cytotoxicity tests in the absence of an insert” value [4] was “not reduced” and the “Mean hydrodynamic diameter (nm)” value [5, 6] was 126.2 nm. For the same molecule, the Polydispersity index [5, 6] was 0.26, the “Mean hydrodynamic diameter (nm)” value [5, 7] was 150.4 nm and the Polydispersity index [5, 7] was 0.09. For the same molecule, the “Mean hydrodynamic diameter (nm)” value [5, 8] was 171.3 nm and the Polydispersity index [5, 8] was 0.08.
In the case of Nc1ccn([C@@H]2O[C@H](CO)[C@@H](O)C2(F)F)c(=O)n1 [Gemcitabine, 2′,2′-difluoro-2′-deoxycytidine], the IC50 ([2]; Homo sapiens, KB 3-1) is reported as 50.8 ± 49.8 µM and the IC50 ([3]; Homo sapiens, MCF7, MCF-7 cells) is reported as 29 ± 13.9 µM.
With CC(C)=CCCC(C)=CCCC(C)=CCCC=C(C)CCC=C(C)CCC(=O)Nc1ccn([C@@H]2O[C@H](CO)[C@@H](O)[C@@H]2O)c(=O)n1 [SQara-C, 4-(N)-squalenoylcytarabine] the “Mean hydrodynamic diameter (nm)” value [5, 6] was 110.4±34.1 nm and the Polydispersity index [5, 6] was 0.168.
For 4-(N)-squalenoyl acyclovir [SQACV], the “Mean hydrodynamic diameter (nm)” value [5, 6] was 217.5 ± 37.9 nm and the Polydispersity index [5, 6] was 0.038.
In the case of CC(C)=CCCC(C)=CCCC(C)=CCCC=C(C)CCC=C(C)CCC(=O)OC[C@@H]1CC[C@H](n2cnc3c(=O)[nH]cnc32)O1 [5′-squalenoyl-didanosine], the “Mean hydrodynamic diameter / size of the nanoparticles” value ([5]; concentration not given) is reported as 152 nm and the Polydispersity index ([5]; concentration not given) is reported as 0.1.
In the case of CC(C)=CCCC(C)=CCCC(C)=CCCC=C(C)CCC=C(C)CCC(=O)OC[C@H]1O[C@@H](n2cc(C)c(=O)[nH]c2=O)C[C@@H]1N=[N+]=[N-] [5′-squalenoyl-zidovudine, 3-azido-5-(5-methyl-2,4-dioxo-3,4-dihydro-2H-pyrimidin-1-yl)-tetrahydro-furan-2-yl-methyl (2S,3S,5R)-4,8,13,17,21-pentamethyl-docosa-4,8,12,16,20-pentaenoate], the “Mean hydrodynamic diameter / size of the nanoparticles” value ([5]; concentration not given) is reported as 150-170 nm.
